{
  "source": "patent US6270797A",
  "about": "(USV Limited, priority 2000, dated 2001)",
  "origin": "cited, not measured here",
  "key": {"[1]": {"test_system": "beta cells of pancreatic-islet tissue"}},
  "data": [
    {"molecule": "Cc1cnc(C(=O)NCCc2ccc(S(=O)(=O)NC(=O)NC3CCCCC3)cc2)cn1", "note": "[Glipizide, 1-cyclohexyl-3-[[p-[2-(5-methylpyrazinecarboxamido)ethyl]phenyl]sulfonyl]urea]", "values": [
      {"measurement": "insulin secretion from the beta cells of pancreatic-islet tissue", "setting": "[1]", "result": "stimulates insulin secretion"},
      {"measurement": "number of insulin receptors", "setting": "insulin receptors", "result": "may increase the number of insulin receptors"}
    ]}
  ]
}
